Reference: paper PMC5883364 (Malaria Journal, 2018)
“And” between values parts separate entries of the source, which are not always exact repeats. Identical values can stand only once. “Also recorded” adds a separate entry of the source. Like-named read-outs stand apart in the source and are kept apart here.

Assays:
[1] = system: V79 (Chinese hamster lung) cells; details: for LD50 V79: Chinese hamster, 24 h; for Selectivity index LD50 (V79)/IC50 (3D7): V79 vs 3D7; for Selectivity index LD50 (V79)/IC50 (Dd2): V79 vs Dd2; for Selectivity index LD50 (V79)/IC50 (IPC4912): V79 vs IPC4912; for Selectivity index LD50 (V79)/IC50 (IPC5202): V79 vs IPC5202
Method: (§1) Cytotoxicity was assessed on the mammalian cell lines HepG2-A16 (human hepatoma) and V79 (Chinese hamster lung), using a MTT based assay, as previously described. […] V79 and HepG2 cell lines were incubated for 24 and 48 h, respectively (media changed at 24 h intervals). Absorbance was read at 570 nm on a multi-mode microplate reader (Triad, Dynex Technologies), to produce a log dose-dependence curve. The LD50 value for each compound was estimated by non-linear interpolation of the dose-dependence curve (GraphPad Software).

[2] = system: HepG2-A16 (human hepatoma) cells; details: for LD50 HepG2: human, 48 h; for Selectivity index LD50 (HepG2)/IC50 (3D7): HepG2 vs 3D7; for Selectivity index LD50 (HepG2)/IC50 (Dd2): HepG2 vs Dd2; for Selectivity index LD50 (HepG2)/IC50 (IPC4912): HepG2 vs IPC4912; for Selectivity index LD50 (HepG2)/IC50 (IPC5202): HepG2 vs IPC5202
Method: as §1

[3] = system: P. falciparum 3D7 (chloroquine and mefloquine sensitive); assay: SYBR Green I assay, IC50, strain 3D7; format: cell-based, Plasmodium falciparum; details: read-out: P. falciparum IC50 ± SD, 3D7
Method: (§2) Staging and parasitaemia were determined by light microscopy of Giemsa-stained thin blood smears. Anti-malarial activity was determined using the SYBR Green I assay, as previously described.

[4] = system: P. falciparum Dd2 (chloroquine-resistant, mefloquine-resistant); assay: SYBR Green I assay, IC50, strain Dd2; format: cell-based, Plasmodium falciparum; details: for IC50: Plasmodium falciparum, DD2, strain Dd2, read-out: P. falciparum IC50 ± SD, Dd2
Method: as §2

[5] = system: P. falciparum IPC5202 ring-stage parasites; assay: Ring-stage survival assay (RSA), IPC5202; format: cell-based, Plasmodium falciparum; details: 6 h pulse, 10 x IC50 (DHA 700 nM), ART-R strain IPC5202
Method: (§3) Ring-stage survival assays (RSA) were carried out as described in [21], with modifications. Parasite cultures were synchronized once, with 5% sorbitol, and in the next reinvasion cycle, twice, with a 6 h interval. […] Then, plates were centrifuged and supernatant replaced by drug-free culture media. After additional incubation during 66 h for ring-stage, and 42 h for mature-stage, susceptibility was assessed microscopically on Giemsa-stained thin blood smears by estimating the percentage of viable parasites that developed into a second generation of rings or trophozoites.

Plasmodium berghei NK65 = assay: Peters' 4-day suppressive test in Swiss albino mice; format: in vivo; details: for in vivo outcome against P. berghei in words: followed to day 10; for inhibition in vivo at 50 mg/kg/day: Plasmodium berghei
Method: (§4) In vivo tests were performed following the Guidelines for Ethical Conduct in The Care and Use of Animals of the Federal University of Rio Grande do Norte—Brazil (CEUA/UFRN/46/2013). Evaluation of anti-malarial activity in vivo was carried out using the Peters’ 4-day suppressive test, with modifications, as previously described. Swiss albino mice were infected with Plasmodium berghei NK65 and randomly allocated to groups of five animals. Animals were treated with 50 mg/kg/day of each of the tested compounds (dissolved in PBS containing 1% DMSO), administrated orally, for four consecutive days. The control group was treated with a solution of PBS/1% DMSO. On days 5 (D5), 7 (D7) and 10 (D10) after parasite inoculation, tail blood smears were Giemsa-stained and examined microscopically to estimate parasitaemia. Acute toxicity testing was carried out to determine adverse effects due to compounds (including weight loss, hair appearance, skin wounds and behavioural changes), and recorded daily.

[6] = system: P. falciparum IPC4912 (artemisinin-resistant, K13 I543T); assay: SYBR Green I assay, IC50, strain IPC4912; format: cell-based, Plasmodium falciparum; details: for Resistance Index RIc = IC50 (IPC4912)/IC50 (3D7): IPC4912 vs 3D7; for IC50: Plasmodium falciparum, read-out: P. falciparum IC50 ± SD, IPC4912
Method: Staging and parasitaemia were determined by light microscopy of Giemsa-stained thin blood smears. Anti-malarial activity was determined using the SYBR Green I assay, as previously described. Briefly, early ring stage parasites (> 80% of rings) were challenged with a 1:3 serial dilution of each compound, in concentrations ranging from 10,000–0.169 nM. Fluorescence intensity was measured with a multi-mode microplate reader (Triad, Dynex Technologies), with excitation and emission wavelengths of 485 and 535 nm, respectively, and analysed by nonlinear regression using GraphPad Prism to determine IC50 values.

[7] = system: P. falciparum 3D7 ring-stage parasites; assay: Ring-stage survival assay (RSA), 3D7; format: cell-based, Plasmodium falciparum; details: 6 h pulse, 10 x IC50 (DHA 700 nM), ART-S strain 3D7
Method: as §3

[8] = system: P. falciparum IPC5202 (artemisinin-resistant, K13 R539T); assay: SYBR Green I assay, IC50, strain IPC5202; format: cell-based, Plasmodium falciparum; details: for Resistance Index RIb = IC50 (IPC5202)/IC50 (3D7): IPC5202 vs 3D7; for IC50: Plasmodium falciparum, read-out: P. falciparum IC50 ± SD, IPC5202, strain IPC5202
Method: as §2

Swiss albino mice = assay: Acute toxicity observation in treated mice; format: in vivo; details: 50 mg/kg/day oral, monitored daily
Method: as §4

[9] = Solubility remark in the IC50 table; format: physicochemical; parameters: key: ?: Low solubility; details: symbol printed in the IC50 cells
From the text: Supplement 12936_2018_2281_MOESM1_ESM.docx, table 1: Table 1: Antiplasmodial activity in vitro (IC50) against resistant and sensitive P. falciparum strains. | column: P. falciparum IC50 ± SD (nM)

[10] = Plasmodium falciparum, 3D7, strain 3D7
[11] = mice, 50 mg/kg/day oral for 4 days, day 5
[12] = mice, 50 mg/kg/day oral for 4 days

Compound | LD50 V79 [1] | LD50 HepG2 [2] | IC50 [3, 10] | IC50 [4] | Selectivity index LD50 (V79)/IC50 (3D7) [1] | Selectivity index LD50 (V79)/IC50 (Dd2) [1] | Selectivity index LD50 (HepG2)/IC50 (3D7) [2] | Selectivity index LD50 (HepG2)/IC50 (Dd2) [2] | in vivo outcome against P. berghei in words (Plasmodium berghei NK65; 50 mg/kg/day oral for 4 days) | Mean parasitaemia ± SD, Day 5 (Plasmodium berghei NK65; [11]) | Mean parasitaemia ± SD, Day 7 (Plasmodium berghei NK65; [12]) | Mean parasitaemia ± SD, Day 10 (Plasmodium berghei NK65; [12]) | Selectivity index LD50 (V79)/IC50 (IPC4912) [1] | Selectivity index LD50 (V79)/IC50 (IPC5202) [1] | Selectivity index LD50 (HepG2)/IC50 (IPC4912) [2] | Selectivity index LD50 (HepG2)/IC50 (IPC5202) [2] | Resistance Index RIc = IC50 (IPC4912)/IC50 (3D7) [6] | IC50 [6] | Resistance Index RIb = IC50 (IPC5202)/IC50 (3D7) [8] | IC50 [8] | further results
O=c1nn[nH]n1-c1ccccc1 [LC133, 1-phenyl-1H-tetrazol-5-one] | > 1 mM | 1.0 mM | > 10000 nM | > 10000 nM |  |  |  |  |  |  |  |  |  |  |  |  |  |  |  |  | antiplasmodial activity of building blocks in words ([4]; tested separately, Dd2 and 3D7 (Additional file 1)): devoid of antiplasmodial activity
O=C(Nc1nnn[nH]1)C1CCC2(CC1)OOC1(O2)C2CC3CC(C2)CC1C3 (stereo not drawn) [LC142] | > 1 mM | 1.0 mM | 117 ± 33.2 nM | 107 ± 45.4 nM | 8568.9 | 9354.5 | 8568.9 | 9354.5 |  |  |  |  |  |  |  |  |  |  |  |  | Resistance Index RIa = IC50 (Dd2)/IC50 (3D7) ([4]; Dd2 vs 3D7): 0.9
C1C2CC3CC1CC(C2)C31OOC2(CCC(Nc3nnn[nH]3)CC2)OO1 (stereo not drawn) [LC163] | > 1 mM | 1.0 mM | < 100 nM |  | 15873.0 | 22988.5 | 15873.0 | 22988.5 | recrudescence also occurred on day 10 | 0% | 0% | 0.2 ± 0.13% | 53763.4 | 14064.7 | 53763.4 | 14064.7 | 0.30 | 18.6 ± 16.9 nM | 1.13 | 71.1 ± 1.1 nM | Ring-stage survival rate (RSA), percentage of viable parasites, IPC5202 [5]: 2.0 ± 1.9% and > 1%; inhibition in vivo at 50 mg/kg/day (Plasmodium berghei NK65; 120 h, mice, 50 mg/kg/day oral for 4 days, day 5, vs control group, read-out: % inhibition of parasite growth, Day 5 (converted)): 100%; inhibition in vivo at 50 mg/kg/day (Plasmodium berghei NK65; 168 h, mice, 50 mg/kg/day oral for 4 days, day 7, vs control group, read-out: % inhibition of parasite growth, Day 7 (converted)): 100%; inhibition in vivo at 50 mg/kg/day (Plasmodium berghei NK65; 240 h, mice, 50 mg/kg/day oral for 4 days, day 10, vs control group, read-out: % inhibition of parasite growth, Day 10 (converted)): 96.5%; IC50 ([3]; strain 3D7): 63 ± 0.7 nM; Ring-stage survival rate (RSA), percentage of viable parasites, 3D7 [7]: 6.9 ± 1.6% and > 1%
CC(C)(C)OC(=O)NCCCCNC(=O)C1CCC2(CC1)OOC1(O2)C2CC3CC(C2)CC1C3 (stereo not drawn) [MIS13] | > 1 mM | 0.3 mM |  |  | 135135.1 | 294117.6 | 44594.6 | 97058.8 | by day 10 the five mice were cured; also recorded: totally suppressed P. berghei parasitaemia | 0.11 ± 0.19% | 0.05 ± 0.10% | 0% | 3333333.3 | 588235.2 | 1100000.0 | 194117.6 | 0.04 | 0.3 ± 0.3 nM | 0.23 | 1.7 ± 1.1 nM | inhibition in vivo at 50 mg/kg/day (Plasmodium berghei NK65; po, 120 h, read-out: % inhibition of parasite growth, Day 5): 92.6%; inhibition in vivo at 50 mg/kg/day (Plasmodium berghei NK65; po, 168 h, read-out: % inhibition of parasite growth, Day 7): 98.6%; inhibition in vivo at 50 mg/kg/day (Plasmodium berghei NK65; po, 240 h, read-out: % inhibition of parasite growth, Day 10): 100%; mice presenting parasitaemia, day 5 (Plasmodium berghei NK65; groups of five mice, 50 mg/kg/day oral, day 5): 1/5; adverse effects in vivo (Swiss albino mice): no adverse effects were observed; decrease in HepG2 survival ([2]; maximum dose of 1 mM): ~30%
NCCCCNC(=O)C1CCC2(CC1)OOC1(O2)C2CC3CC(C2)CC1C3 (stereo not drawn) [MIS15] | > 1 mM | 1.0 mM |  |  |  |  |  |  |  |  |  |  |  |  |  |  |  |  |  |  | solubility remark (no IC50 obtained) [9]: ?
NCCCCNC1CCC2(CC1)OOC1(O2)C2CC3CC(C2)CC1C3 (stereo not drawn) [MIS16] | > 1 mM | 1.0 mM |  |  |  |  |  |  |  |  |  |  |  |  |  |  |  |  |  |  | solubility remark (no IC50 obtained) [9]: ?
